Reference: patent publication US10047075B2, “Pyridines and pyrimidines and use thereof” (Purdue Pharma L.P., priority 2014, dated 2018)
Like-named read-outs stand apart in the source and are kept apart here.

Biological target: human Nav1.7 (Homo sapiens, UniProt Q15858)
Assay: FLIPR or FLIPR TETRA sodium dye assay with KCl and test article pre-incubation (CoroNa Green, veratridine + scorpion venom)
Type: cell-based
[1] = recombinant human Nav1.7 in HEK293 cells

Chain of human Nav1.7 (Q15858 1-1977 isoform Q15858-3): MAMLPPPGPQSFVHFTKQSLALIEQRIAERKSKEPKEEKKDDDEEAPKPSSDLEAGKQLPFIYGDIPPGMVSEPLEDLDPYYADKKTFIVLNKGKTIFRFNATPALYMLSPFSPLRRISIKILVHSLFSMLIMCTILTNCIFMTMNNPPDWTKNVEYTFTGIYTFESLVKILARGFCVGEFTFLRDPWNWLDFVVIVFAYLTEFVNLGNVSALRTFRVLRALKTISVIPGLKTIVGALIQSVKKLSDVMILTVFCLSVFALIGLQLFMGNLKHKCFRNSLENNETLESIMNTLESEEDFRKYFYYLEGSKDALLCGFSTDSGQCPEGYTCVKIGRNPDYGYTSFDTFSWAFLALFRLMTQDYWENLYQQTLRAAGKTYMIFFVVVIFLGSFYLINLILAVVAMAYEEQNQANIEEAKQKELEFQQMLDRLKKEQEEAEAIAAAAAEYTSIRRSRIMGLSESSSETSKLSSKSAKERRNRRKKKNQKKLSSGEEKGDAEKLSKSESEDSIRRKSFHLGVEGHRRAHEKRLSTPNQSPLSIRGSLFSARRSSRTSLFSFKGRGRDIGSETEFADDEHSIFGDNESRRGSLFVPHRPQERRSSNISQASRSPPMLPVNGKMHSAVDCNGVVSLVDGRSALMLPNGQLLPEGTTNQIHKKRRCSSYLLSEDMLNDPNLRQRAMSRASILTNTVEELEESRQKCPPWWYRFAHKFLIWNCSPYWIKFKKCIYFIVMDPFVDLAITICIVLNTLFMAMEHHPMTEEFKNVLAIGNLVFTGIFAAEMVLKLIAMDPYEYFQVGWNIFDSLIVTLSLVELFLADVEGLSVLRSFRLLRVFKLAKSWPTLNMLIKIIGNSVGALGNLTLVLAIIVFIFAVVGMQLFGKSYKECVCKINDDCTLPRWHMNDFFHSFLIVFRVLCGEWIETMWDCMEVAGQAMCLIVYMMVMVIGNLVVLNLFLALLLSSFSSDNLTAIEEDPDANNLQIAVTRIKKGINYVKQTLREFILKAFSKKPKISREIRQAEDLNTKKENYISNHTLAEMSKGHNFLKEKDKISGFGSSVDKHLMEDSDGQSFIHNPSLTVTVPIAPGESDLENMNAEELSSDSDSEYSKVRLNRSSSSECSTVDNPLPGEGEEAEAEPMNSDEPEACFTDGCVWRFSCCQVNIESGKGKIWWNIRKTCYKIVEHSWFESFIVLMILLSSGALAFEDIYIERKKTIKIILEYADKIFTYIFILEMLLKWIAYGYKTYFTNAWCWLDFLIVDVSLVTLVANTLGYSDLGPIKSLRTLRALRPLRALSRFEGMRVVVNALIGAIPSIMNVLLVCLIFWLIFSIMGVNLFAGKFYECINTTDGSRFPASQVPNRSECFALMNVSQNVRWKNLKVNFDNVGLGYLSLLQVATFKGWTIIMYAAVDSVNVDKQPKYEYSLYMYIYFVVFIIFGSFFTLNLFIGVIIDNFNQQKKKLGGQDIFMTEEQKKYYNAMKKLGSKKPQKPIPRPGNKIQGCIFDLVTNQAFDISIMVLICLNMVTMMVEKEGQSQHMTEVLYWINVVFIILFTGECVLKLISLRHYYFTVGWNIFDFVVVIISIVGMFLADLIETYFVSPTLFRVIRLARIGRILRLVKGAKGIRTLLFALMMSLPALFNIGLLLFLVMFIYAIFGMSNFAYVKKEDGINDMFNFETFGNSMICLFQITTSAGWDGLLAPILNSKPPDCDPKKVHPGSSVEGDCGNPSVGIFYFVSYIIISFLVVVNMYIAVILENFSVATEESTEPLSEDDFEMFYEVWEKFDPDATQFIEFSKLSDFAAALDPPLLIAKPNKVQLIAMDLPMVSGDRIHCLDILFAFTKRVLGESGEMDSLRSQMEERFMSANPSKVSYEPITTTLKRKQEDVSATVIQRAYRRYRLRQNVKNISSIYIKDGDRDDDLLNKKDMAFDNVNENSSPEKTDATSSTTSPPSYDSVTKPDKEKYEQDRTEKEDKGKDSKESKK

| Structure (SMILES) | IC50 [1] [µM] | IC50 [µM] |
| --- | --- | --- |
| NC(=O)c1cccc(-c2ccc3c(c2)CCCCN3c2ccc(C(F)(F)F)cc2)n1 [Compound 58, 6-(1-(4-(trifluoromethyl)phenyl)-2,3,4,5-tetrahydro-1H-benzo[b]azepin-7-yl)picolinamide] | 0.357 ± 0.015 | – |
| NC(=O)c1cccc(-c2ccc3c(c2)COCCN3c2ccc(C(F)(F)F)cc2)n1 [Compound 61, 6-(1-(4-(trifluoromethyl)phenyl)-1,2,3,5-tetrahydrobenzo[e][1,4]oxazepin-7-yl)picolinamide] | 0.404 ± 0.036 | – |
| C[C@H](Nc1cc(C(N)=O)nc(-c2ccc3c(c2)CCCCN3c2ccc(C(F)(F)F)cc2)n1)C(N)=O [Compound 64, (S)-6-((1-amino-1-oxopropan-2-yl)amino)-2-(1-(4-(trifluoro-methyl)phenyl)-2,3,4,5-tetrahydro-1H-benzo[b]azepin-7-yl)pyrimidine-4-carboxamide] | 1.04 ± 0.077 | – |
| NC(=O)c1cccc(-c2ccc3c(c2)OCCCN3c2ccc(C(F)(F)F)cc2)n1 [Compound 65, 6-(5-(4-(trifluoromethyl)-phenyl)-2,3,4,5-tetrahydrobenzo[b][1,4]oxazepin-8-yl)picolinamide] | 0.338 ± 0.034 | – |
| NC(=O)c1cccc(-c2ccc3c(c2)CCCN3c2ccc(C(F)(F)F)cc2)n1 [Compound 66, 6-(1-(4-(trifluoromethyl)-phenyl)-1,2,3,4-tetrahydroquinolin-6-yl)picolinamide] | 0.913 ± 0.024 | – |
| NC(=O)c1cccc(-c2ccc3c(c2)CCCN3c2cccc(C(F)(F)F)c2)n1 [Compound 67, 6-(1-(3-(trifluoromethyl)-phenyl)-1,2,3,4-tetrahydroquinolin-6-yl)picolinamide] | > 20 | – |
| NC(=O)c1cccc(-c2ccc3c(c2)CCN3c2ccc(C(F)(F)F)cc2)n1 [Compound 68, 6-(1-(4-(trifluoromethyl)-phenyl)indolin-5-yl)-picolinamide] | > 20 | – |
| NC(=O)c1cccc(-c2ccc3c(c2)OCC=C3c2ccc(C(F)(F)F)cc2)n1 [Compound 69, 6-(4-(4-(trifluoromethyl)-phenyl)-2H-chromen-7-yl)picolinamide] | 0.524 ± 0.077 | – |
| C[C@H](Nc1cc(C(N)=O)nc(-c2ccc3c(c2)OC[C@H](O)[C@H]3c2ccc(C(F)(F)F)cc2)n1)C(N)=O [Compound 71, 6-(((S)-1-amino-1-oxopropan-2-yl)amino)-2-((3R,4S)-3-hydroxy-4-(4-(trifluoromethyl)phenyl)chroman-7-yl)pyrimidine-4-carboxamide] | > 20 | – |
| NC(=O)c1cc(CN[C@H]2CCNC2=O)nc(-c2ccc3c(c2)OCCCN3c2ccc(C(F)(F)F)cc2)n1 [Compound 72, (S)-6-(((2-oxopyrrolidin-3-yl)amino)methyl)-2-(5-(4-(trifluoromethyl)phenyl)-2,3,4,5-tetrahydrobenzo[b][1,4]oxazepin-8-yl)pyrimidine-4-carboxamide] | 0.11 ± 0.022 | – |
| OC[C@@H](O)c1cccc(-c2ccc3c(c2)CCCCN3C2CCCCC2)n1 [Compound 73, (S)-1-(6-(1-cyclohexyl-2,3,4,5-tetrahydro-1H-benzo[b]azepin-7-yl)pyridin-2-yl)ethane-1,2-diol] | 0.331 ± 0.031 | – |
| C[C@H](Nc1cc(C(N)=O)nc(-c2ccc3c(c2)CCCCN3C2CCCCC2)n1)C(N)=O [Compound 74, (S)-6-((1-amino-1-oxopropan-2-yl)amino)-2-(1-cyclohexyl-2,3,4,5-tetrahydro-1H-benzo[b]azepin-7-yl)pyrimidine-4-carboxamide] | 4.88 ± 0.47 | – |
| OC[C@@H](O)c1cccc(-c2ccc3c(c2)CCCCN3C2CCOCC2)n1 [Compound 75, (S)-1-(6-(1-(tetrahydro-2H-pyran-4-yl)-2,3,4,5-tetrahydro-1H-benzo[b]azepin-7-yl)pyridin-2-yl)ethane-1,2-diol] | 3.35 ± 0.244 | – |
| OC[C@@H](O)c1cccc(-c2ccc3c(c2)CCCCN3C2CCC(F)(F)CC2)n1 [Compound 76, (S)-1-(6-(1-(4,4-difluorocyclohexyl)-2,3,4,5-tetrahydro-1H-benzo[b]azepin-7-yl)pyridin-2-yl)ethane-1,2-diol] | 0.526 ± 0.034 | – |
| O=C1Cc2cc(-c3cccc([C@H](O)CO)n3)ccc2N1Cc1ccc(C(F)(F)F)cc1 [Compound 77, (S)-5-(6-(1,2-dihydroxyethyl)pyridin-2-yl)-1-(4-(trifluoromethyl)-benzyl)indolin-2-one] | 7.8 ± 0.691 | – |
| O=S(=O)(c1ccc(C(F)(F)F)cc1)N1CCCc2cc(-c3cccc([C@H](O)CO)n3)ccc21 [Compound 78, (S)-1-(6-(1-((4-(trifluoromethyl)-phenyl)sulfonyl)-1,2,3,4-tetrahydroquinolin-6-yl)pyridin-2-yl)ethane-1,2-diol] | 0.857 ± 0.103 | – |

| Structure (SMILES) | IC50 [1] [µM] | IC50 [µM] |
| --- | --- | --- |
| C[C@H](Nc1cc(C(N)=O)nc(-c2ccc3c(c2)CCCN3c2ccc(C(F)(F)F)cc2)n1)C(N)=O [Compound 80, (S)-6-((1-amino-1-oxopropan-2-yl)amino)-2-(1-(4-(trifluoro-methyl)phenyl)-1,2,3,4-tetrahydroquinolin-6-yl)pyrimidine-4-carboxamide] | 0.653 ± 0.118 | – |
| OC[C@@H](O)c1cccc(-c2ccc3c(c2)CCCN3Cc2ccc(C(F)(F)F)cc2)n1 [Compound 81, (S)-1-(6-(1-(4-(trifluoromethyl)benzyl)-1,2,3,4-tetrahydroquinolin-6-yl)pyridin-2-yl)ethane-1,2-diol] | 0.091 ± 0.025 | – |
| NC(=O)c1cc(O[C@H]2CCNC2=O)nc(-c2ccc3c(c2)OCCCN3c2ccc(C(F)(F)F)cc2)n1 [Compound 82, (S)-6-((2-oxopyrrolidin-3-yl)oxy)-2-(5-(4-(trifluoromethyl)phenyl)-2,3,4,5-tetrahydrobenzo-[b][1,4]oxazepin-8-yl)pyrimidine-4-carboxamide] | 0.211 ± 0.038 | – |
| NC(=O)[C@H](O)[C@@H](O)c1cccc(-c2ccc3c(c2)OCCCN3c2ccc(C(F)(F)F)cc2)n1 [Compound 83, (2R,3S)-2,3-dihydroxy-3-(6-(5-(4-(trifluoromethyl)phenyl)-2,3,4,5-tetrahydrobenzo[b][1,4]-oxazepin-8-yl)pyridin-2-yl)propanamide] | 0.213 ± 0.013 | – |
| NC(=O)c1cccc(-c2ccc3c(c2)CNCCN3c2ccc(C(F)(F)F)cc2)n1 [Compound 84, 6-(1-(4-(trifluoromethyl)-phenyl)-2,3,4,5-tetrahydro-1H-benzo[e][1,4]diazepin-7-yl)picolinamide] | 1.92 ± 0.296 | – |
| C[C@H](Nc1cc(C(N)=O)nc(-c2ccc3c(c2)CNCCN3c2ccc(C(F)(F)F)cc2)n1)C(N)=O [Compound 88, (S)-6-((1-amino-1-oxopropan-2-yl)amino)-2-(1-(4-(trifluoromethyl)phenyl)-2,3,4,5-tetrahydro-1H-benzo[e][1,4]diazepin-7-yl)pyrimidine-4-carboxamide] | > 20 | – |
| C[C@H](Nc1cc(C(N)=O)nc(-c2ccc3c(c2)CN(CC2CC2)CCN3c2ccc(C(F)(F)F)cc2)n1)C(N)=O [Compound 89, (S)-6-((1-amino-1-oxopropan-2-yl)amino)-2-(4-(cyclopropylmethyl)-1-(4-(trifluoromethyl)phenyl)-2,3,4,5-tetrahydro-1H-benzo[e][1,4]diazepin-7-yl)pyrimidine-4-carboxamide] | > 20 | – |
| C[C@H](Nc1cc(C(N)=O)nc(-c2ccc3c(c2)CN(C)CCN3c2ccc(C(F)(F)F)cc2)n1)C(N)=O [Compound 90, (S)-6-((1-amino-1-oxopropan-2-yl)amino)-2-(4-methyl-1-(4-(trifluoromethyl)phenyl)-2,3,4,5-tetrahydro-1H-benzo[e][1,4]diazepin-7-yl)pyrimidine-4-carboxamide] | > 20 | – |
| CCN(CC)C(=O)N1CCN(c2ccc(C(F)(F)F)cc2)c2ccc(-c3cccc(C(N)=O)n3)cc2C1 [Compound 92, 7-(6-carbamoylpyridin-2-yl)-N,N-diethyl-1-(4-(trifluoromethyl)phenyl)-1,2,3,5-tetrahydro-4H-benzo[e][1,4]diazepino-4-carboxamide] | 0.813 ± 0.057 | – |
| NC(=O)c1cccc(-c2ccc3c(c2)CN(C(=O)C2CC2)CCN3c2ccc(C(F)(F)F)cc2)n1 [Compound 93, 6-(4-(cyclopropanecarbonyl)-1-(4-(trifluoromethyl)phenyl)-2,3,4,5-tetrahydro-1H-benzo[e][1,4]diazepin-7-yl)picolinamide] | > 20 | – |
| CC(=O)N1CCN(C2CCCCC2)c2ccc(-c3cccc([C@H](O)CO)n3)cc2C1 [Compound 94, (S)-1-(1-cyclohexyl-7-(6-(1,2-dihydroxyethyl)pyridin-2-yl)-1,2,3,5-tetrahydro-4H-benzo[e][1,4]diazepin-4-yl)ethan-1-one] | 8.8 ± 1.92 | – |
| CS(=O)(=O)N1CCN(c2ccc(C(F)(F)F)cc2)c2ccc(-c3cccc([C@H](O)CO)n3)cc2C1 [Compound 95, (S)-1-(6-(4-(methylsulfonyl)-1-(4-(trifluoromethyl)phenyl)-2,3,4,5-tetrahydro-1H-benzo[e][1,4]diazepin-7-yl)pyridin-2-yl)ethane-1,2-diol] | – | 0.469 ± 0.017 |
| CCNC(=O)N1CCN(c2ccc(C(F)(F)F)cc2)c2ccc(-c3cccc([C@H](O)CO)n3)cc2C1 [Compound 97, (S)-7-(6-(1,2-dihydroxyethyl)pyridin-2-yl)-N-ethyl-1-(4-(trifluoromethyl)phenyl)-1,2,3,5-tetrahydro-4H-benzo[e][1,4]diazepin-4-carboxamide] | 2.62 ± 0.1 | – |
| CN(C)CC(=O)N1CCN(c2ccc(C(F)(F)F)cc2)c2ccc(-c3cccc([C@H](O)CO)n3)cc2C1 [Compound 100, (S)-1-(7-(6-(1,2-dihydroxyethyl)pyridin-2-yl)-1-(4-(trifluoromethyl)phenyl)-1,2,3,5-tetrahydro-4H-benzo[e][1,4]diazepin-4-yl)-2-(dimethylamino)ethan-1-one] | 7.07 ± 1.45 | – |
| N#CCN1CCN(c2ccc(C(F)(F)F)cc2)c2ccc(-c3cccc(C(N)=O)n3)cc2C1 [Compound 102, 6-(4-(cyanomethyl)-1-(4-(trifluoromethyl)phenyl)-2,3,4,5-tetrahydro-1H-benzo[e][1,4]diazepin-7-yl)picolinamide] | 0.857 ± 0.075 | – |
| NC(=O)CN1CCN(C2CCCCC2)c2ccc(-c3cccc([C@H](O)CO)n3)cc2C1 [Compound 104, (S)-2-(1-cyclohexyl-7-(6-(1,2-dihydroxyethyl)pyridin-2-yl)-1,2,3,5-tetrahydro-4H-benzo[e][1,4]diazepin-4-yl)acetamide] | 2.61 ± 0.047 | – |
